For 64 molecules, outcome, EC50 and IC50 results are on record in PubChem BioAssay AID179 (DTP/NCI, 2004).

Several values for one entry are separate records, joined by “and”; a condition that tells them apart may be missing. Identical values can stand only once. Activity calls are given as the source filed them.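 How the source made its calls: active means compounds giving half or more protection of infected cells from virus-caused growth loss, again on retest; inactive means the rest.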

The subject of this assay is CEM cells HIV-1 protection, formazan growth assay. Nature of the assay: NCI AIDS Antiviral Assay. The note with it: for IC50: measured here: growth of uninfected CEM cells. In short, it runs like this: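 Steps: treat uninfected and HIV-1-infected human CEM cells at five drug levels; quantify growth by soluble formazan; retest any compound reaching 50% protection; classify actives from the retest.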

Regarding `CC(=O)[O-].N.N.N.N.[Co+3].[O-][Cl+3]([O-])([O-])[O-].[OH3+]`, the outcome was inactive.
As for `N#C/C(=C\c1ccc(Cl)cc1)c1nc(-c2cc3ccccc3oc2=O)cs1`, the EC50 (usually the concentration needed to bring the measured effect to its halfway point) is above 151 µM and the IC50 – broadly, the concentration needed to halve the response being measured – was above 151 µM.
As for `CC(C)(C)[Si](C)(C)OCC1OC(n2ccc(=O)[nH]c2=O)C(O[Si](C)(C)C(C)(C)C)C12OC2C(=O)NN` (centres undefined), the EC50 was above 200 µM and the IC50 turned out to be 7.41 µM.
The like results for `CCCCCCCCN(/N=C/c1c2c(O)c3c(O)c(C)c4c(c3c1O)C(=O)C(C)(O/C=C/C(OC)C(C)C(OC(C)=O)C(C)C(O)C(C)C(O)C(C)/C=C/C=C(C)C(=O)N2)O4)C1OC(COC(=O)c2ccccc2)C(OC(=O)c2ccccc2)C1OC(=O)c1ccccc1` (centres undefined) were, in that order, above 200 µM and 10.5 µM.
The like results for `Nc1c(SSc2ccc3ccccc3c2N)ccc2ccccc12` were, in that order, above 50.1 µM and 14.8 µM.
Regarding `CC(=O)OCC(OC(C)=O)C(OC(C)=O)C(OC(C)=O)C(/C=N\Nc1nc2ccccc2c(=O)[nH]1)=N/Nc1nc2ccccc2c(=O)[nH]1` (centres undefined), the EC50 is above 100 µM and the IC50 is above 100 µM.
Consider `C/C(N=NS(=O)(=O)c1c(C)cc(C)cc1C)=C1\C=CC=CN1O`, for which the outcome was inactive.
On to `CCCCCCCCCCCCCC/C(=C/OCC[N+](C)(C)C)OC(C)=O` (tested in a mixture with another compound), for which the EC50 is above 200 µM and the IC50 worked out at 0.355 µM.
The matching figures for `Nc1ccc2c(c1)C(=O)OC2(C(F)(F)F)C(F)(F)F`: above 200 µM and 93.3 µM.
The like results for `COC(=O)C(C(=O)C(=O)Nc1ccccc1C(C)=O)c1nc2ccc(Cl)cc2[nH]c1=O` (centres undefined) were, in that order, above 58.9 µM and above 58.9 µM.
Turning to `O=C(Nc1ccc(/C=C\c2ccc([N+](=O)[O-])cc2S(=O)(=O)O)c(S(=O)(=O)O)c1)OCc1ccccc1`, the EC50 was above 200 µM and the IC50 was above 200 µM.
`S=c1[nH][nH]c(=S)s1`: the EC50 is 288 µM and the IC50 worked out at 501 µM.
Turning to `O=C1O/C(=C(/Br)c2ccc(Cl)c(Cl)c2)c2ccccc21`, the EC50 was above 200 µM and the IC50 turned out to be 11.7 µM.
The like results for `CCC1(O)C(=O)OCc2c1cc1n(c2=O)Cc2cc3cc(OC)c(OC)cc3nc2-1` (centres undefined) were, in that order, above 10 µM and 1.29 µM.
Turning to `O=C(NC12CC3CC(CC(F)(C3)C1)C2)c1ccccc1`, the EC50 was above 132 µM and the IC50 was determined as 52.5 µM.
The like results for `Cc1cc2nnc(C(N)=O)c(N)c2cc1C` were, in that order, above 200 µM and above 200 µM.
For `CCCCNC(=O)n1ncc2cc([N+](=O)[O-])c([N+](=O)[O-])cc21`, the EC50 was above 200 µM and the IC50 was 25.7 µM.
As for `COc1cc(O)c2c(c1)C(=O)C1=C(C2=O)C(O)C[C@@](C)(O)C1` (some centres undefined), the outcome was inactive.
Molecule `COC(=O)[C@@]1(C)CCC[C@]2(C(=O)O)C3Cc4occc4[C@H](C)[C@@H]3CCC21` (some centres undefined) had an EC50 above 200 µM and a concentration for half-maximal inhibition (IC50) of 105 µM.
As for `COc1ccc2cc1Oc1ccc(cc1)C[C@H]1NCCc3cc(OC)c(cc31)Oc1c(O)c(OC)cc3c1CCN(C)C3C2` (some centres undefined), the outcome was inactive.
In the case of `COC(=O)c1cc2ccc(O)c(O)c2cn1`, the EC50 is above 195 µM; the IC50 was 2.24 µM and 2.34 µM.
For `O=S(=O)(O)c1cc(S(=O)(=O)O)c2c(Nc3ccnc4ccccc34)ccc(S(=O)(=O)O)c2c1`, the EC50 was above 200 µM and the IC50 is above 200 µM.
As to `COc1ccc(NC(=O)CC/C(CC(=O)C(C)(C)C)=N\NC(=O)C(N)=O)cc1`, the EC50 is above 93.3 µM and the IC50 was above 93.3 µM.
As for `NC1=C(O)c2ccccc2C(=O)C1=O`, the result was inactive.
Take `CC(=O)NCCSSCCCCSSCCNC(C)=O`: the EC50 was above 200 µM and the IC50 turned out to be 95.5 µM.
On to `COC(=O)[C@@H]1C[C@@H](O)CN1C(=O)c1ccc([N+](=O)[O-])cc1[N+](=O)[O-]`, for which the EC50 is above 200 µM and the IC50 is 129 µM.
As for `CCOc1cc(N=Nc2cc(Cl)c(S(=O)(=O)O)cc2Cl)c2cc(S(=O)(=O)O)ccc2c1N=Nc1c(S(=O)(=O)O)cc2cc(NC(=O)c3ccc(N)cc3)ccc2c1O`, the result was active.
On to `COc1ccc(-c2cc(-c3ccco3)c(C#N)c(=S)n2C2OC(CO)C(O)C(O)C2O)cc1` (centres undefined), for which the EC50 was 37.2 µM and the IC50 is above 200 µM.
In the case of `Cc1cc2c(c(C#N)c1C)NC(=O)CN=C2c1ccccc1F`, the EC50 is 70.8 µM and the IC50 is above 200 µM.
On to `COC(=O)C1(O)CC(=O)CCC1c1ccc(OC)cc1` (centres undefined), for which the EC50 is above 275 µM and the IC50 was above 275 µM.
For the molecule `O=Nc1ccc(N(CCO)CCO)cc1`, the EC50 is above 200 µM and the IC50 worked out at 2.95 µM.
With `NCCc1nc2ccccc2[nH]1`, the EC50 was above 200 µM and the IC50 is above 200 µM.
For the molecule `Nc1ccc(-c2ncc3cc(-c4cccc(-c5cc6cnc(-c7ccc(N)cc7)nc6c6ccccc56)c4)c4ccccc4c3n2)cc1`, the EC50 is above 200 µM and the IC50 was above 200 µM.
With `Nc1ccc(S(=O)(=O)C(=O)O)cc1`, the EC50 was above 1230 µM and the IC50 was above 1230 µM.
Regarding `O=C(Nc1nc2ccc([N+](=O)[O-])cc2s1)C(=O)C(C(=O)c1ccncc1)C1OC(=O)c2ccccc21` (centres undefined), the EC50 is above 186 µM and the IC50 stood at 102 µM.
The like results for `Cc1cn(C2CC(NO)C(CO[Si](C)(C)C(C)(C)C)O2)c(=O)[nH]c1=O` (centres undefined) were, in that order, above 200 µM and 126 µM.
As to `CCCCCCCCCCCCCC(=O)OCC(C[As](=O)(O)O)OC(=O)CCCCCCCCCCCCC` (centres undefined), the EC50 was above 11.5 µM and the IC50 was above 11.5 µM.
On to `NC(CCc1nc(-c2cccc([N+](=O)[O-])c2)cs1)C(=O)O` (centres undefined), for which the outcome was inactive.
Turning to `CCOc1ccc2nc(NC(=O)/C(CC(=O)CC(C3=C(O)c4ccccc4CC3=O)c3ccccc3)=N\O)sc2c1` (centres undefined), the EC50 was above 4.79 µM and the IC50 was above 4.79 µM.
With `COC(=O)c1c2c(cc3c1CC1(C3)Cc3ccc4c(c3C1=O)CCC4)CCC2` (centres undefined), the EC50 is above 200 µM and the IC50 was determined as 4.17 µM.
The like results for `COc1ccc(/C(C)=N/NC(=S)N(C)C)c(O)c1` were, in that order, above 200 µM and 4.79 µM.
As to `CC(C)=CCNc1ncnc2c1ncn2CCC(=O)OC(C)(C)C`, the EC50 was above 200 µM and the IC50 came to 117 µM.
The matching figures for `CCOP(=O)(OCC)C(=Cc1ccccc1)P(=O)(OCC)OCC`: above 661 µM and 398 µM.
As to `CC(NNC(=O)c1ccncc1)c1cccc(C(F)(F)F)c1` (centres undefined), the EC50 was above 200 µM and the IC50 was 195 µM.
The matching figures for `Cc1nn2c(N)cc(=O)nc2nc1/C=C/c1ccc(N(C)C)cc1`: above 200 µM and 4.27 µM.
The matching figures for `O=C1c2cc(Cc3ccccc3)c(=O)c(Cc3ccccc3)cc2C(=O)c2cc(Cc3ccccc3)c(=O)c(Cc3ccccc3)cc21`: above 200 µM and above 200 µM.
The like results for `CCOC(=O)/C=C/SCCNC(=O)OCC` were, in that order, above 204 µM and 120 µM.
Regarding `COc1cc2c(c(OC)c1O)-c1ccc(OC)c(=O)cc1[C@@H](NC(=O)C(F)(F)F)CC2`, the EC50 was above 2 µM and the IC50 was 0.0363 µM.
As to `COC(=O)[C@@H]1[C@H]2CC[C@]3(C)[C@@H](OC(C)=O)CC[C@H]3[C@@H]2CC[C@H]1C1(C)SCCS1`, the EC50 is 10 µM and the IC50 was determined as 24 µM.
As to `N[C@H](CSSC[C@@H](N)C(=O)Nc1ccc2ccccc2c1)C(=O)Nc1ccc2ccccc2c1`, the EC50 is above 200 µM; the IC50 was 2.75 µM and 3.55 µM.
Regarding `O=C1c2ccc([N+](=O)[O-])cc2C(=O)N1CC[P+](c1ccccc1)(c1ccccc1)c1ccccc1`, the EC50 is above 200 µM and the IC50 was above 200 µM.
Take `Cc1cn(C2CC(N=[N+]=[N-])C(COC(=O)CCOCCCCCCCCN=[N+]=[N-])O2)c(=O)[nH]c1=O` (centres undefined): the EC50 is 0.00631 µM and the IC50 came to 64.6 µM.
Consider `C/C=C/CC(C)C(O)C1C(=O)NC(CC)C(=O)N(C)CC(=O)N(C)C(CC(C)C)C(=O)NC(C(C)C)C(=O)N(C)C(CC(C)C)C(=O)NC(C)C(=O)NC(C)C(=O)N(C)C(CC(C)C)C(=O)N(C)C(CC(C)C)C(=O)N(C)C(C(C)C)C(=O)N1C` (centres undefined), for which the EC50 was 3.39 µM and the IC50 was found to be 8.13 µM.
The like results for `CCOC(=O)CC[C@H](NC(=O)c1nc[nH]c1[N+](=O)[O-])C(=O)OCC` were, in that order, above 200 µM and above 200 µM.
The matching figures for `Cc1ccc(-c2n[nH]c(=O)[nH]2)cc1[N+](=O)[O-]`: above 200 µM and above 200 µM.
The like results for `COc1ccc(CN(Cc2ccc(OC)cc2)C(=O)CC2(O)C=CCC2)cc1` (centres undefined) were, in that order, above 200 µM and 75.9 µM.
Consider `O=C1NC(=O)C(CC2CCCCCCCCCCC2=O)C(=O)N1` (centres undefined), for which the EC50 is above 112 µM and the IC50 was above 112 µM.
Turning to `N#Cc1cc(NC(=O)c2ccccc2)c(=O)n2c1[nH]c1ccccc12`, the outcome was inactive.
On to `O=C1c2cc3c(cc2CC12Cc1cc4c(cc1C2=O)CCCC4)CCCC3`, for which the EC50 is above 200 µM and the IC50 was above 200 µM.
Turning to `Nc1nc([O-])c([I+]c2ccccc2)c(=O)[nH]1`, the EC50 is above 200 µM and the IC50 is above 200 µM.
As for `Cc1cccc(C=NC23CC4CC(CC(C4)C2)C3)c1`, the EC50 is above 102 µM and the IC50 was above 102 µM.
As for `CC1OC(OC2C(CO)OC(O[C@H]3CC[C@@]4(C)C(=CC[C@H]5[C@@H]6C[C@@H]7O[C@]8(CC[C@@H](C)CN8)[C@@H](C)[C@@H]7[C@@]6(C)CC[C@@H]54)C3)C(O)C2O)C(O)C(O)C1O` (some centres undefined), the result was inactive.
Take `O=C(O)c1cc2ccccc2c(=O)s1`: the EC50 is above 331 µM and the IC50 was above 331 µM.
Turning to `CC(=O)NC1C(OCc2ccccc2)OC(CO)C(O)C1OCC(=O)N1CCCC1C(=O)N[C@@H](CCC(=O)NCCCCNc1c2ccccc2nc2cccc([N+](=O)[O-])c12)C(N)=O` (some centres undefined), the EC50 was above 100 µM and the IC50 was 15.8 µM.
